≈ marks a conversion by molar mass, not a printed value. Calls of active or inactive are those of the source. The rule behind the calls is not given here.
Experiments:
[1] = Cmax in rat at 160 mg/kg bid; format: ADME, organism-based; set-up: dose 160 mg/kg; conditions: in vivo
Cytochrome P450 3A4 = Cytochrome P450 3A4 (Homo sapiens, UniProt P08684); test: Inhibition of CYP3A4 in human liver microsomes; format: ADME, Microsome
[2] = Toxicity in Sprague-Dawley rat assessed as islet cell cytoplasmic alteration at 60 mg/kg, po measured for 1 months; format: organism-based; conditions: in vivo, 730 h
[3] = Tmax in rat at 40 mg/kg bid; format: ADME, organism-based; conditions: in vivo
Cytochrome P450 2D6 = Cytochrome P450 2D6 (Homo sapiens, UniProt P10635); test: Inhibition of CYP2D6 in human liver microsomes; format: ADME, Microsome
Cytochrome P450 2D6, sequence (P10635 whole entry): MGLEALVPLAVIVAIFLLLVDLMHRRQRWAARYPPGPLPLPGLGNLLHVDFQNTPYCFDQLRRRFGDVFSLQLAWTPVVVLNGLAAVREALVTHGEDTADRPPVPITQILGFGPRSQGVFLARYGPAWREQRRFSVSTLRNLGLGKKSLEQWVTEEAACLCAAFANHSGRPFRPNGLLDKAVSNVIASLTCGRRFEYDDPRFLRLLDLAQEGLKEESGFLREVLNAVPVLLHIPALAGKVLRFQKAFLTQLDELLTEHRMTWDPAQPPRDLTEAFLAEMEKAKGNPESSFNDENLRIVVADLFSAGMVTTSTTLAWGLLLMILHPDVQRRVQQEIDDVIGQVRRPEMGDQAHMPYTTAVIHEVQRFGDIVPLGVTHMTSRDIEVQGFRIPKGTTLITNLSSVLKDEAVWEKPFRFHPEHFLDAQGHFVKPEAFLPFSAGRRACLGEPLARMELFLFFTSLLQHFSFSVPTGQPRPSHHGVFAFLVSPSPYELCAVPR

Cytochrome P450 2C9 = Cytochrome P450 2C9 (Homo sapiens, UniProt P11712); test: Inhibition of CYP2C9 in human liver microsomes; format: ADME, Microsome
Cytochrome P450 2C9, sequence (P11712 whole entry): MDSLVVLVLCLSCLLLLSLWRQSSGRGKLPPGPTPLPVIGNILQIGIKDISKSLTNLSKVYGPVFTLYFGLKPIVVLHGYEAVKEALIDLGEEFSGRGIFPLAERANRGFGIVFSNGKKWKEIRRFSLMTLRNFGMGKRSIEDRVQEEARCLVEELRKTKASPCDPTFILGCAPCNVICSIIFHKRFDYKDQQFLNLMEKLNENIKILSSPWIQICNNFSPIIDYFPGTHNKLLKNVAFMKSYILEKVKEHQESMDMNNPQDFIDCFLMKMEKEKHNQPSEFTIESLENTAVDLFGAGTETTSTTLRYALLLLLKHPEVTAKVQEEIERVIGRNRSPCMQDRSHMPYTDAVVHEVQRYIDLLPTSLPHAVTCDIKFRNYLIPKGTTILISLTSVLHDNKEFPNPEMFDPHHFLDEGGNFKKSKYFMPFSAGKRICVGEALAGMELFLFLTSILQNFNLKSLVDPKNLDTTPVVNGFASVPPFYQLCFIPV

Cytochrome P450 2B6 = target: T1, Cytochrome P450 2B6 (Homo sapiens, UniProt P20813); test: Inhibition of CYP2B6 in human liver microsomes; format: ADME, Microsome
T1 sequence (P20813 whole entry): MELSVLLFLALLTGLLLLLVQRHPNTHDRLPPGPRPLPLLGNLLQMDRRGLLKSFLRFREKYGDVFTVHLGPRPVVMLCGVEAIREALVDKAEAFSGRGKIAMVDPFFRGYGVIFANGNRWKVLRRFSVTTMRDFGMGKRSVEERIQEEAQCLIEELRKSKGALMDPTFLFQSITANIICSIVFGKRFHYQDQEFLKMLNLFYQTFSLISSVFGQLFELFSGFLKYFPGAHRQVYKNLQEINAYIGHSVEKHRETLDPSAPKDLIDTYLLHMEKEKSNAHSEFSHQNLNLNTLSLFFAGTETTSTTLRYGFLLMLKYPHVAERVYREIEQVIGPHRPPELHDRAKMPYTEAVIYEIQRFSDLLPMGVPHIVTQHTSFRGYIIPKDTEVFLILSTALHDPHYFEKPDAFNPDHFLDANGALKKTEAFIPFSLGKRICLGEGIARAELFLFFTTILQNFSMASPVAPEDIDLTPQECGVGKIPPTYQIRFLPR

[4] = AUC (0 to 24 hrs) in rat at 150 mg/kg, po bid; format: ADME, organism-based; set-up: dose 150 mg/kg, route po; conditions: in vivo
[5] = Toxicity in Sprague-Dawley rat assessed as effect on pancrease at 300 mg/kg, po measured for 1 months; format: organism-based; conditions: in vivo, 730 h
[6] = Solubility of the compound in FeSSIF at pH 5; format: ADME
[7] = Toxicity in Sprague-Dawley rat assessed as decrease in islet size at 300 mg/kg, po measured for 1 months; format: organism-based; set-up: scale not given: the % may be the effect or the level left; conditions: in vivo, 730 h
[8] = Cmax in rat at 40 mg/kg bid; format: ADME, organism-based; set-up: dose 40 mg/kg; conditions: in vivo
[9] = Toxicity in Sprague-Dawley rat assessed as effect on pancrease at AUC measured for 1 months; conditions: in vivo, 730 h
Rattus norvegicus [10] = test: Hyperglycemic activity in Sprague-Dawley rat assessed as effect on blood glucose level at 150 mg/kg, qd by glucometer; format: functional, organism-based
[11] = Cmax in rat at 400 mg/kg bid; format: ADME, organism-based; set-up: dose 400 mg/kg; conditions: in vivo
Cytochrome P450 2C8 = target: T2, Cytochrome P450 2C8 (Homo sapiens, UniProt P10632); test: Inhibition of CYP2C8 in human liver microsomes; format: ADME, Microsome
T2 sequence (P10632 whole entry): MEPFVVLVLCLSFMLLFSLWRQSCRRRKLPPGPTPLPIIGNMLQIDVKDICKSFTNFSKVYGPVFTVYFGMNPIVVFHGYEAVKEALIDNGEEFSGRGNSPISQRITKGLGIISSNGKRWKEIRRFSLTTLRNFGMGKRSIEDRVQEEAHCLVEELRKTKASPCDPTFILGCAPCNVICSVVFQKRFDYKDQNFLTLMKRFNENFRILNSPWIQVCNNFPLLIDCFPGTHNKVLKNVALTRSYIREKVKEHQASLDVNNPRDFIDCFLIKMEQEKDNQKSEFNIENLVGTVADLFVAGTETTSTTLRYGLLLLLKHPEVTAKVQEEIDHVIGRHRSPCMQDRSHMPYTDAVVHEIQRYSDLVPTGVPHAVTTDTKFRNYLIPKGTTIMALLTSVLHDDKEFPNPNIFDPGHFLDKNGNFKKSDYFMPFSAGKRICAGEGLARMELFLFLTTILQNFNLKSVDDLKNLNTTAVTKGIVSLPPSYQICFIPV

Cytochrome P450 2C19 = Cytochrome P450 2C19 (Homo sapiens, UniProt P33261); test: Inhibition of CYP2C19 in human liver microsomes; format: ADME, Microsome
Cytochrome P450 2C19, sequence (P33261 whole entry): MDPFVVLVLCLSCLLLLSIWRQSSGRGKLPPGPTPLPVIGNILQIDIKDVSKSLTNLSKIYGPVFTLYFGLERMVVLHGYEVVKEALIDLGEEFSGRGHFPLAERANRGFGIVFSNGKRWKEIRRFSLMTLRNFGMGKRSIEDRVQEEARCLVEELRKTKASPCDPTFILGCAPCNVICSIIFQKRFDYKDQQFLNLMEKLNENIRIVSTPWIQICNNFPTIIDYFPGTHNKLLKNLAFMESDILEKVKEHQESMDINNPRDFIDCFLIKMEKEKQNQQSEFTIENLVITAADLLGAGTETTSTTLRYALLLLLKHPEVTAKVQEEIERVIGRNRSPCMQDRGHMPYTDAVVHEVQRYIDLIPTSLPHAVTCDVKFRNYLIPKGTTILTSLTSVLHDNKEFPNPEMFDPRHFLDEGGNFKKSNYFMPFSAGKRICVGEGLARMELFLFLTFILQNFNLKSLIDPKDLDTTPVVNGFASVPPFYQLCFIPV

[12] = Permeability of compound across apical to basolateral side in dog MDCK cells; format: ADME, cell-based, Canis lupus familiaris; conditions: read-out: permeability
[13] = Tmax in rat at 160 mg/kg bid; format: ADME, organism-based; conditions: in vivo
[14] = Tmax in rat at 400 mg/kg bid; format: ADME, organism-based; conditions: in vivo
[15] = Toxicity in cynomolgus monkey assessed as effect on pancrease at 30 mg/kg, po measured for 1 months; format: organism-based, Macaca fascicularis; conditions: in vivo, 730 h
Rattus norvegicus [16] = test: Anti-hyperglycemic activity against Sprague-Dawley rat assessed as reduction in plasma glucose AUC at 0.3 mg/kg, po measured for 20 to 120 mins by OGTT analysis; format: functional, organism-based; conditions: time lower 20.0 min, time upper […]
[17] = Solubility in phosphate buffer at pH 6.5; format: physicochemical
[18] = Solubility of the compound in FaSSIF at pH 6.5; format: ADME
[19] = Toxicity in Sprague-Dawley rat assessed as decrease in islet number at 300 mg/kg, po measured for 1 months; format: organism-based; conditions: in vivo, 730 h
[20] = AUC (0 to 24 hrs) in rat at 40 mg/kg bid; format: ADME, organism-based; set-up: dose 40 mg/kg; conditions: in vivo
[21] = Toxicity in rat assessed as NOAEL by measuring AUC (0 to 24 hrs) measured for 28 days; conditions: in vivo, time 28 day
[22] = target: Free fatty acid receptor 1 (Homo sapiens, UniProt O14842); test: Positive allosteric modulation of human GPR40 expressed in HEK293 cells assessed as cAMP accumulation; format: cell-based
Free fatty acid receptor 1, sequence (O14842 whole entry): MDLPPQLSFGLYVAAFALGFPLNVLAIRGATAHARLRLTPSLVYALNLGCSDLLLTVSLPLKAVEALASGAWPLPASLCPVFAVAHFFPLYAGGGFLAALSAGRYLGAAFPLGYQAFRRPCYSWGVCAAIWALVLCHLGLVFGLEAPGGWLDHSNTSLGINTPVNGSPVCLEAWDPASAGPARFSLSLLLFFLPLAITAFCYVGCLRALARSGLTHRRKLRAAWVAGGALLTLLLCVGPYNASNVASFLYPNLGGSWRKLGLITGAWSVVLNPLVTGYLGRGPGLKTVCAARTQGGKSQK

[23] = Solubility of the compound in FeSSIF at pH 6.5; format: ADME
[24] = AUC (0 to 24 hrs) in rat at 400 mg/kg bid; format: ADME, organism-based; set-up: dose 400 mg/kg; conditions: in vivo
[25] = AUC (0 to 24 hrs) in rat at 160 mg/kg bid; format: ADME, organism-based; set-up: dose 160 mg/kg; conditions: in vivo

Cytochrome P450 3A4, sequence (P08684 whole entry): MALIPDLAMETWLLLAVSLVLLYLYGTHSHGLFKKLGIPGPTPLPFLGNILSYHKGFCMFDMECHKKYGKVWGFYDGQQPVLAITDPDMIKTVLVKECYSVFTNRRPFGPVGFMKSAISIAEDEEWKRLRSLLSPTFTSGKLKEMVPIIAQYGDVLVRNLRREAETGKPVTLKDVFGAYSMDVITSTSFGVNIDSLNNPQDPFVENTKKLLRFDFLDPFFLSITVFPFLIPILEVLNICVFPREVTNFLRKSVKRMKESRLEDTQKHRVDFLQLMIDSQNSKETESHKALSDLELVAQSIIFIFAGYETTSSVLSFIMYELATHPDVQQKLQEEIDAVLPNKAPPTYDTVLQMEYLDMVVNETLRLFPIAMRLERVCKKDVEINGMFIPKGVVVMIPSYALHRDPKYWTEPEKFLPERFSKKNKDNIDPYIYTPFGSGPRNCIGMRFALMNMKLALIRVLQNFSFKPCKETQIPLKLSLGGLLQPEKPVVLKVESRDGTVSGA

Compound: COc1cc(N2CC[C@@H](Oc3ccc(N4N=C(C(F)(F)F)[C@@H](C)[C@@H]4CC(=O)O)cc3)[C@H](C)C2)c(Cl)cn1
- Cmax [1]: 106 µM
- IC50 (Cytochrome P450 3A4): 3.4 µM
- Activity [2]: Toxic
- Tmax [3]: 8 h
- IC50 (Cytochrome P450 2D6): 40 µM
- IC50 (Cytochrome P450 2C9): 14 µM
- IC50 (Cytochrome P450 2B6): 8.1 µM
- AUC [4]: 557 µM·h
- Activity [5]: Non-Toxic
- solubility [6]: 8 µg/mL (≈ 14.8 µM)
- Activity [7]: 50%
- Cmax [8]: 64 µM
- Activity [9]: Non-Toxic
- Activity (Rattus norvegicus [10]): Active
- Cmax [11]: 271 µM
- IC50 (Cytochrome P450 2C8): 1.7 µM
- IC50 (Cytochrome P450 2C19): 38 µM
- Papp A→B [12]: 14.2 ×10⁻⁶ cm/s
- Tmax [13]: 8 h
- Tmax [14]: 8 h
- Activity [15]: Non-Toxic
- Activity (Rattus norvegicus [16]): inactive
- solubility [17]: 1 µg/mL (≈ 1.85 µM)
- solubility [18]: 9 µg/mL (≈ 16.6 µM)
- Activity [19]: Toxic
- AUC [20]: 549 µM·h
- AUC at […] [21]: 404 µM·h
- EC50 [22]: 3.6 µM
- solubility [23]: 59 µg/mL (≈ 109 µM)
- AUC [24]: 3370 µM·h
- AUC [25]: 1100 µM·h
